In patent publication US12590062B2, “PD-1/PD-L1 inhibitors” (Gilead Sciences, Inc., priority 2017, dated 2026) one finds EC50, AC50 and IC50 data, which are given here for 14 compounds.

Assay [1] addresses T1, interaction between the recombinant extracellular domain (ECD) of PD-1 and native cell-bound PD-L1 (Homo sapiens, UniProt Q9NZQ7).
T1 construct: expressed in transfected cells
Briefly: CHO/PD-L1 cell capture assay. In kind it is cell-based. Conditions: CHO cells overexpressing PD-L1, pre-incubated 1 hr with compound, captured on biotinylated Fc-PD-1 coated plates, 75 min at room temperature. Summed up:
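EC50 values came from four-parameter fits of counts of Draq5-stained CHO-PD-L1 cells retained on plate-bound biotinylated Fc-PD-1 ECD, enumerated by high-content imaging. Cells in PBS pH 7.4 with EDTA and 2% BSA had 1 hr compound pre-incubation, then 75 min capture at room temperature.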

The target in a further assay is T2, PD-1/PD-L1 interaction (Homo sapiens, UniProt Q9NZQ7).
T2 construct: expressed in transfected cells; host or cells: CHO cells (aAPC-PD-L1) co-cultured with Jurkat cells overexpressing PD-1 and an NFAT-luciferase reporter
Nature of the assay: PD-1/PD-L1 NFAT reporter co-culture assay. In kind it is cell-based. The conditions noted are these: Jurkat PD-1 NFAT-luciferase cells co-cultured with aAPC-PD-L1 CHO cells, 6 hrs at 37° C.; read-out: EC50 NFAT Luciferase. The procedure, abridged:
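Compounds are scored by restoration of NFAT-luciferase signal in PD-1-expressing Jurkat cells cultured 6 h at 37 °C on CHO cells presenting anti-CD3 and PD-L1; EC50 values derive from four-parameter curve fitting.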

The next assay addresses T3, PD-L1 (Homo sapiens, UniProt Q9NZQ7).
T3 construct: determine if they can specifically dimerize the extracellular domains of PD-L1
Nature of the assay: PD-L1/PD-L1 dimerization biochemical protein-protein interaction assay (ALPHA). Type of assay: binding. Conditions: compound-induced PD-L1 dimerization, head prints '1 nM' (0.5 nM His-tagged PD-L1 and 0.5 nM FLAG-tagged PD-L1), read-out: AC50 PDL1 Dimer Alpha 1 nM. The procedure, abridged: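 After 2 h at 25 °C with compound, His- and FLAG-tagged PD-L1 ECDs (each 0.5 nM final; 25 mM Hepes pH 7.4, 150 mM NaCl) were detected by sequential anti-His acceptor and anti-FLAG donor bead incubations. Dose-response curves fitted to four-parameter equation for AC50.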

Another assay addresses PD-1/PD-L1 (Homo sapiens, UniProt Q9NZQ7). Nature of the assay: PD-1/PD-L1 biochemical protein-protein interaction assay (ALPHA). In kind it is binding. Conditions: 0.3 nM His tagged PD-L1, 2.5 nM biotinylated Fc-PD-1, 60 minutes at 25° C., read-out: IC50 PD-L1-PD-1 Alpha IC50-mono PD-L1-fcP-D1. Summed up:
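Compound blockade of the PD-1/PD-L1 extracellular-domain interaction measured as reduced ALPHA signal after 60 min at 25 °C, pH 7.4 Hepes buffer with EDTA, Tween 20 and BSA. Final proteins: His-tagged PD-L1 0.3 nM, biotinylated Fc-PD-1 2.5 nM; four-parameter curve fit gives IC50.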

T2 sequence (Q9NZQ7 19-290): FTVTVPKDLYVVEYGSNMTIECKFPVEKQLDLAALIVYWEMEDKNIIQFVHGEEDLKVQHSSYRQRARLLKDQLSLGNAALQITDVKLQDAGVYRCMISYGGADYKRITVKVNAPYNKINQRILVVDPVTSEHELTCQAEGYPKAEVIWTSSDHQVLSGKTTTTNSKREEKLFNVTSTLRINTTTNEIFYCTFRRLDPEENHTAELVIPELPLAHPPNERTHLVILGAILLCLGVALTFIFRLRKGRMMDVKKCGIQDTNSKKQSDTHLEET
T1 sequence (Q9NZQ7 19-290): as above
T3 sequence (Q9NZQ7 19-238 limits assumed): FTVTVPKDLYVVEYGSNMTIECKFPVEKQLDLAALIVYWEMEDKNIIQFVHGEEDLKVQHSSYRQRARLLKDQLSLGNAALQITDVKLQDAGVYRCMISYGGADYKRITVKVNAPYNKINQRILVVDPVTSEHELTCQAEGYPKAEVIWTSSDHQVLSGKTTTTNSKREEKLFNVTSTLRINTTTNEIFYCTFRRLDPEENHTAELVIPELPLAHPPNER
T3 sequence (Q9NZQ7 19-238 limits assumed): as above
PD-1/PD-L1, sequence (Q9NZQ7 19-238 limits assumed): as above

What is called EC50 is the concentration at which the effect is half-maximal. Broadly, the AC50 is the concentration at which the activity in the assay is half-maximal. For `COc1nc(OCc2cccc(-c3cccc(COc4nc(OC)c(C5=NCCN5)cc4Cl)c3C)c2C)c(Cl)cc1C1=NCCN1` [Example 30, 6,6′-(((2,2′-dimethyl-[1,1′-biphenyl]-3,3′-diyl)bis(methylene))bis(oxy))bis(5-chloro-3-(4,5-dihydro-1H-imidazol-2-yl)-2-methoxypyridine)], the EC50 in assay [1] was 52.1 nM; at PD-1/PD-L1 interaction it was at least 50000 nM. Also, the half-maximal activity concentration (AC50) on PD-L1 is 369 nM.

Regarding `COc1nc(OCc2cccc(-c3cccc(COc4nc(OC)c(CN[C@](C)(CO)C(=O)O)cc4Cl)c3C)c2C)c(Cl)cc1CN[C@](C)(CO)C(=O)O` [Example 43, (2R,2′R)-2,2′-((((((2,2′-dimethyl-[1,1′-biphenyl]-3,3′-diyl)bis(methylene))bis(oxy))bis(5-chloro-2-methoxypyridine-6,3-diyl))bis(methylene))bis(azanediyl))bis(3-hydroxy-2-methylpropanoic acid)], the EC50 in assay [1] is 65.2 nM; on PD-1/PD-L1 interaction, 79 nM. For the same compound, at PD-L1, the half-maximal activity concentration (AC50) was at least 10000 nM.

For `COc1nc(OCc2cccc(-c3cccc(COc4nc(OC)c(CN[C@@H](C)CC(=O)O)cc4Cl)c3C)c2C)c(Cl)cc1CN[C@@H](C)CC(=O)O` [Example 74, (3S,3′S)-3,3′-((((((2,2′-dimethyl-[1,1′-biphenyl]-3,3′-diyl)bis(methylene))bis(oxy))bis(5-chloro-2-methoxypyridine-6,3-diyl))bis(methylene))bis(azanediyl))dibutyric acid], the EC50 in assay [1] was 176 nM; at PD-1/PD-L1 interaction, 138 nM. For the same compound, the AC50 at PD-L1 is at least 10000 nM.

The IC50 is the concentration that gives 50% inhibition. Turning to `Cc1c(COc2cc(OCc3cncc(C#N)c3)c(CNC[C@@H](O)CC(N)=O)cc2Cl)cccc1-c1cccc(COc2cc(OCc3cncc(C#N)c3)c(CNC[C@@H](O)CC(N)=O)cc2Cl)c1C` [Example 165, (3S,3′S)-4,4′-((((((2,2′-dimethyl-[1,1′-biphenyl]-3,3′-diyl)bis(methylene))bis(oxy))bis(5-chloro-2-((5-cyanopyridin-3-yl)methoxy)-4,1-phenylene))bis(methylene))bis(azanediyl))bis(3-hydroxybutanamide)], the IC50 on PD-1/PD-L1 turned out to be 5.8 nM. Further, the EC50 in assay [1] was found to be 156 nM; at PD-1/PD-L1 interaction it was 352 nM.

Turning to `COc1nc(OCc2cccc(-c3cccc(COc4nc(OC)c(CNC[C@H](O)C(=O)O)cc4Cl)c3C)c2C)c(Cl)cc1CNC[C@H](O)C(=O)O` [Example 166, (2S,2′S)-3,3′-((((((2,2′-dimethyl-[1,1′-biphenyl]-3,3′-diyl)bis(methylene))bis(oxy))bis(5-chloro-2-methoxypyridine-6,3-diyl))bis(methylene))bis(azanediyl))bis(2-hydroxypropanoic acid)], on PD-1/PD-L1, the half-maximal inhibitory concentration (IC50) turned out to be 2 nM. Besides, the EC50 came out at 41.6 nM in assay [1] and 139 nM at PD-1/PD-L1 interaction.

As to `COc1nc(OCc2cccc(-c3cccc(COc4cc(OCc5cncc(C#N)c5)c(CNC[C@@H](O)CC(=O)O)cc4Cl)c3C)c2C)ccc1CNC[C@@H](O)CC(=O)O` [Example 203, (S)-4-(((6-((3′-((4-((((S)-3-Carboxy-2-hydroxypropyl)amino)methyl)-2-chloro-5-((5-cyanopyridin-3-yl)methoxy)phenoxy)methyl)-2,2′-dimethyl-[1,1′-biphenyl]-3-yl)methoxy)-2-methoxypyridin-3-yl)methyl)amino)-3-hydroxybutanoic acid], the half-inhibitory concentration (IC50) at PD-1/PD-L1 worked out at 1 nM. Further, the EC50 is 317 nM in assay [1] and 696 nM at PD-1/PD-L1 interaction.

On to `Cc1c(COc2cc(OCc3cncc(C#N)c3)c(CNCCO)cc2Cl)cccc1-c1cccc2c1CCN2C(=O)c1ccc(CNCCO)c(OCc2cncc(C#N)c2)c1` [Example 205, 5-((4-Chloro-5-((3-(1-(3-((5-cyanopyridin-3-yl)methoxy)-4-(((2-hydroxyethyl)amino)methyl)benzoyl)indolin-4-yl)-2-methylbenzyl)oxy)-2-(((2-hydroxyethyl)amino)methyl)phenoxy)methyl)nicotinonitrile], for which the IC50 at PD-1/PD-L1 was 6.9 nM. In addition, the EC50 in assay [1] stood at 394 nM; at PD-1/PD-L1 interaction, 1430 nM.

Consider `Cc1c(COc2cc(OCc3cncc(C#N)c3)c(CNC[C@@H](O)CC(=O)O)cc2Cl)cccc1-c1cccc2c1CCN2C(=O)c1ccc(CNC[C@@H](O)CC(=O)O)c(OCc2cncc(C#N)c2)c1` [Example 206, (S)-4-((4-(4-(3-((4-((((S)-3-Carboxy-2-hydroxypropyl)amino)methyl)-2-chloro-5-((5-cyanopyridin-3-yl)methoxy)phenoxy)methyl)-2-methylphenyl)indoline-1-carbonyl)-2-((5-cyanopyridin-3-yl)methoxy)benzyl)amino)-3-hydroxybutanoic acid], for which, at PD-1/PD-L1, the IC50 was 0.2 nM. Also, the EC50 in assay [1] was found to be 161 nM; on PD-1/PD-L1 interaction it was 672 nM.

Take `COc1nc(OCc2cccc(-c3cccc(COc4nc(OC)c(CNC[C@@H](O)CC(=O)O)cc4I)c3C)c2C)c(I)cc1CNC[C@@H](O)CC(=O)O` [Example 241, (3S,3′S)-4,4′-((((((2,2′-dimethyl-[1,1′-biphenyl]-3,3′-diyl)bis(methylene))bis(oxy))bis(5-iodo-2-methoxypyridine-6,3-diyl))bis(methylene))bis(azanediyl))bis(3-hydroxybutanoic acid)]: the IC50 on PD-1/PD-L1 came to 0.6 nM. The EC50 in assay [1] was 166 nM; at PD-1/PD-L1 interaction, 275 nM.

Regarding `Cc1c(COc2ccc(CNC[C@@H](O)CC(=O)O)c(OCc3cncc(C#N)c3)n2)cccc1-c1cccc(COc2ccc(CNC[C@@H](O)CC(=O)O)c(OCc3cncc(C#N)c3)n2)c1C` [Example 242, (3S,3′S)-4,4′-((((((2,2′-dimethyl-[1,1′-biphenyl]-3,3′-diyl)bis(methylene))bis(oxy))bis(2-((5-cyanopyridin-3-yl)methoxy)pyridine-6,3-diyl))bis(methylene))bis(azanediyl))bis(3-hydroxybutanoic acid)], the IC50 on PD-1/PD-L1 was found to be 0.2 nM. The figures for the EC50 (in assay [1]; on PD-1/PD-L1 interaction) were 129 nM and 288 nM, respectively.

As for `COc1nc(OCc2cccc(-c3cccc(COc4nc(OC)c(CNC[C@@H](O)CC(=O)O)cc4C#N)c3C)c2C)c(C#N)cc1CNC[C@@H](O)CC(=O)O` [Example 243, (3S,3′S)-4,4′-((((((2,2′-dimethyl-[1,1′-biphenyl]-3,3′-diyl)bis(methylene))bis(oxy))bis(5-cyano-2-methoxypyridine-6,3-diyl))bis(methylene))bis(azanediyl))bis(3-hydroxybutanoic acid)], the IC50 at PD-1/PD-L1 was 0.2 nM. Also, the results for the EC50 (in assay [1]; on PD-1/PD-L1 interaction) were 90.6 nM and 393 nM, respectively.

Take `COc1cc(OCc2cccc(-c3cccc(COc4cc(OC)c(CNC[C@@H](O)CC(=O)O)c(OCc5cncc(C#N)c5)c4)c3C)c2C)cc(OCc2cncc(C#N)c2)c1CNC[C@@H](O)CC(=O)O` [Example 245, (3S,3′S)-4,4′-((((((2,2′-dimethyl-[1,1′-biphenyl]-3,3′-diyl)bis(methylene))bis(oxy))bis(2-((5-cyanopyridin-3-yl)methoxy)-6-methoxy-4,1-phenylene))bis(methylene))bis(azanediyl))bis(3-hydroxybutanoic acid)]: the IC50 on PD-1/PD-L1 amounted to 0.6 nM. The EC50 is 308 nM in assay [1] and 3440 nM at PD-1/PD-L1 interaction.

As for `Cc1c(COc2ccc(CNC[C@@H](O)CC(=O)O)c(OCc3cncc(C#N)c3)c2)cccc1-c1cccc(COc2ccc(CNC[C@@H](O)CC(=O)O)c(OCc3cncc(C#N)c3)c2)c1C` [Example 248, (3S,3′S)-4,4′-((((((2,2′-dimethyl-[1,1′-biphenyl]-3,3′-diyl)bis(methylene))bis(oxy))bis(2-((5-cyanopyridin-3-yl)methoxy)-4,1-phenylene))bis(methylene))bis(azanediyl))bis(3-hydroxybutanoic acid)], the IC50 at PD-1/PD-L1 was 0.2 nM. Further, the EC50 in assay [1] is 200 nM; at PD-1/PD-L1 interaction, 540 nM.

Take `Cc1c(COc2cc(OCC3CCOC3)c(CNC[C@@H](O)CC(=O)O)cc2Cl)cccc1-c1cccc(COc2cc(OCC3CCOC3)c(CNC[C@@H](O)CC(=O)O)cc2Cl)c1C` (stereo partly drawn) [Example 280, (3S,3′S)-4,4′-((((((2,2′-dimethyl-[1,1′-biphenyl]-3,3′-diyl)bis(methylene))bis(oxy))bis(5-chloro-2-((tetrahydrofuran-3-yl)methoxy)-4,1-phenylene))bis(methylene))bis(azanediyl))bis(3-hydroxybutanoic acid)]: on PD-1/PD-L1, the IC50 was found to be 0.3 nM. In addition, the EC50 in assay [1] turned out to be 208 nM; at PD-1/PD-L1 interaction, 592 nM.
